# Source: patent US20250034099A1, “BENZOXAZINONE DERIVATIVES” (CHIA TAI TIANQING PHARMACEUTICAL GROUP CO., LTD., priority 2021, published 2025)
# Like-named read-outs stand apart in the source and are kept apart here.
# Legend:
# [1] = target: T1, MR (Homo sapiens, UniProt P08235); test: In vitro evaluation of MR antagonistic activity (HEK293/Gal4/MR cell line, Bright Glo); assay type: cell-based; conditions: HEK293/Gal4/MR cells, aldosterone final 1 nmol, 24 h incubation
# T1 sequence (P08235 726-984 limits assumed): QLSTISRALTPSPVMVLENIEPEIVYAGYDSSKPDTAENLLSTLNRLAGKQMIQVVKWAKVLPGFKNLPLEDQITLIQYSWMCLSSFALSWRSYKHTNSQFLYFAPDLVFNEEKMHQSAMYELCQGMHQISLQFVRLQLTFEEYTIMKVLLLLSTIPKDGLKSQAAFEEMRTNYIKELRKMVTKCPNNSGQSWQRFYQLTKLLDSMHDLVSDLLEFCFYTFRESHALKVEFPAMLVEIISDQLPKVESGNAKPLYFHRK
# Procedure: Purpose of Experiment: to assay the MR antagonistic activity of the compounds
# A DMEM medium purchased from BI; fetal bovine serum purchased from Biosera; an HEK293/Gal4/MR cell line provided by Wuhan Heyan Biomedical Technology Co., Ltd.; Bright Glo purchased from Promega; and an EnVision multi-marker analyzer (PerkinElmer).
# MR cells were seeded in a white 96-well plate, with […] of cell suspension containing 40000 cells added to each well. The cell plate was incubated in a CO2 incubator overnight.
# The compounds to be tested were serially 5-fold diluted to the 8th concentration point with a multi-channel pipette, and the compound concentration ranged from 2 mmol to […]. 38 μL of the medium was added to an intermediate plate, and the compound was added to corresponding wells of the intermediate plate at 2 μL/well. After well mixing, the compound solution was transferred to the cell plate at 10 μL/well, and the cell plate was incubated in a CO2 incubator for 1 h. Aldosterone was diluted to 10 nmol with a medium, i.e., 20 μL of aldosterone with a concentration of 1 μmol was added to 1980 μL of the medium. After well mixing, 10 μL of the aldosterone solution was added to each well of the cell plate except the positive control wells. The cell plate was incubated in a CO2 incubator for 24 h. The final concentration of the compound ranged from 10 μmol to 0.128 nmol, and the final concentration of aldosterone was 1 nmol. After the incubation was completed, the cell supernatant was discarded, and the Bright Glo reagent was added to the cell plate at 100 μL/well. Readings were taken immediately on the EnVision multi-marker analyzer.
# The original data were converted to inhibition rates using the following equation: % inhibition=((RFUcmpd−AVER(RFUNeg.Ctrl))/((AVER(RFUPos.Ctrl)−AVER(RFUNeg.Ctrl))×100%. Compound curves were fitted by log(inhibitor) vs. response-Variable slope of Graphpad Prism 5. IC50 values were calculated by the software using the following formula: Y=Bottom+(Top−Bottom)/(1+10^((Log IC50−X)×HillSlope)).
# [2] = Pharmacokinetic evaluation in rats after IV and PO administration; assay type: in vivo; conditions: rat, plasma, male SD rats; for bioavailability / clearance / Vd: IV (1 mg/kg); for bioavailability: read-out: Bioavailability F (%); for clearance: read-out: Clearance CL; for Vd: read-out: Tissue distribution Vdss; for AUC(0-t): read-out: Area under plasma concentration-time curve AUC0-last PO; for Cmax: read-out: Peak concentration Cmax
# Procedure: SD rats (male, 7-9 weeks old, Beijing Vital River Laboratory Animal Technology Co., Ltd.)
# Pharmacokinetic characteristics of the compounds after intravenous injection (IV) and oral administration (PO) in rodents were tested by a standard scheme. The rats were subjected to intravenous injection and oral administration once in the experiment. […]. The vehicle for the intravenous injection was a clear solution of 80% polyethylene glycol 400/20% water, and the vehicle for the oral administration was a homogeneous suspension of 99.9% (0.5% HPMC:Solutol HS15=95:5)/0.1% Tween 80. Four male SD rats were used in this project. Two rats were subjected to intravenous injection, and plasma samples were collected at 0 h (before administration) and 0.083, 0.25, 0.5, 1, 2, 4, 8 and 24 h (after administration); the other two rats were subjected to oral intragastric administration, and plasma samples were collected at 0 h (before administration) and 0.25, 0.5, 1, 2, 4, 8, and 24 h (after administration). Whole blood samples within 24 h were collected. All blood samples were immediately transferred to labeled commercial centrifuge tubes containing K2-EDTA. After blood sample collection, the plasma supernatant was taken by centrifugation at 3200 g at 4° C. for 10 min, immediately placed in dry ice, and then stored at −60° C. or a lower temperature for LC-MS/MS analysis. Plasma concentration-time data were analyzed by a non-compartmental model using a WinNonlin software package (Version 6.3 and above), and pharmacokinetic parameters such as peak concentration (Cmax), clearance (CL), tissue distribution (Vdss), area under plasma concentration-time curve (AUC0-last), bioavailability (F) and the like were calculated.
# [3] = system: nuclear receptor; conditions: background statement; cited from earlier work
Compound,IC50 [1] [nM],further results
"CNC(=O)CC1COc2cc(F)cc(F)c2N1Cc1cc(C)c2c(c1)NC(=O)CO2 (single isomer, unassigned) [Compound 8a]",130,–
"Cc1noc(CC2COc3cc(F)ccc3N2C(C)c2ccc3c(c2)NC(=O)CO3)n1 (single isomer, unassigned) [Compound 35a]",251,–
"Cc1noc(CC2COc3cc(F)ccc3N2C(C)c2ccc3c(c2)NC(=O)CO3)n1 (single isomer, unassigned) [Compound 35b]",76.6,–
"Cc1c(CN2c3c(F)cc(F)cc3OCC2CC(N)=O)ccc2c1NC(=O)CO2 (single isomer, unassigned) [Compound 42a]",29.1,bioavailability ([2]; PO (10 mg/kg)): 34.6%; clearance [2]: 24.4 mL/min/kg; Vd [2]: 1.57 L/kg; AUC(0-t) ([2]; PO (10 mg/kg)): 5.93 µM·h; Cmax ([2]; PO (10 mg/kg)): 2.74 µM
"NC(=O)CC1COc2cc(F)cc(F)c2N1Cc1ccc2c(c1Cl)NC(=O)CO2 (single isomer, unassigned) [Compound 43a]",18,–
CNC(=O)CC1COc2cc(F)ccc2N1Cc1cc(Cl)c2c(c1)NC(=O)CO2 (stereo not shown) [Compound 4],289,–
CNC(=O)CC1COc2cc(F)cc(F)c2N1Cc1ccc2c(c1)NC(=O)CO2 (stereo not shown) [Compound 5],325,–
CNC(=O)CC1COc2cc(F)ccc2N1C(C)c1ccc2c(c1)NC(=O)CO2 (stereo not shown) [Compound 6],273,–
CS(=O)(=O)CC1COc2cc(F)ccc2N1Cc1ccc2c(c1)NC(=O)CO2 (stereo not shown) [Compound 7],519,–
CCNC(=O)C[C@H]1COc2cc(F)ccc2N1Cc1ccc2c(c1)NC(=O)CO2 [Compound 9],403,–
Cc1noc(C[C@H]2COc3cc(F)ccc3N2Cc2cc(Cl)c3c(c2)NC(=O)CO3)n1 [Compound 10],15,–
Cc1noc(C[C@H]2COc3cc(F)ccc3N2Cc2ccc3c(c2)NC(=O)CO3)n1 [Compound 12],27,–
Cc1nnn(C[C@H]2COc3cc(F)ccc3N2Cc2ccc3c(c2)NC(=O)CO3)n1 [Compound 14],78,–
O=C1COc2ccc(CN3c4ccc(F)cc4OC[C@@H]3Cc3nc(CO)no3)cc2N1 [Compound 15],107,–
Cc1noc(C[C@H]2COc3cc(F)ccc3N2Cc2cc(F)c3c(c2)NC(=O)CO3)n1 [Compound 18],62,–
Cc1noc(C[C@H]2COc3cc(F)ccc3N2Cc2cc3c(cc2F)OCC(=O)N3)n1 [Compound 19],66,–
O=C1COc2cc(F)c(CN3c4ccc(F)cc4OC[C@@H]3Cn3nccn3)cc2N1 [Compound 20],27,–

Compound,IC50 [1] [nM],further results
O=C1COc2ccc(CN3c4ccc(F)cc4OC[C@@H]3Cn3nccn3)cc2N1 [Compound 21],50,–
Cc1noc(C[C@H]2COc3cc(F)ccc3N2Cc2ccc3c(c2F)NC(=O)CO3)n1 [Compound 22],9,–
[2H]C([2H])(c1ccc2c(c1)NC(=O)CO2)N1c2ccc(F)cc2OC[C@@H]1Cc1nc(C)no1 [Compound 23],29,–
Cc1nnn(C[C@H]2COc3cc(F)ccc3N2Cc2cc3c(cc2F)OCC(=O)N3)n1 [Compound 24],32,–
Cc1nc(C[C@H]2COc3cc(F)ccc3N2Cc2cc(Cl)c3c(c2)NC(=O)CO3)no1 [Compound 25],72,–
Cn1nnc(C[C@H]2COc3cc(F)ccc3N2Cc2cc(Cl)c3c(c2)NC(=O)CO3)n1 [Compound 26],32,–
Cn1nnc(C[C@H]2COc3cc(F)ccc3N2Cc2ccc3c(c2)NC(=O)CO3)n1 [Compound 27],80,–
[2H]C([2H])([2H])c1noc(C[C@H]2COc3cc(F)ccc3N2Cc2ccc3c(c2)NC(=O)CO3)n1 [Compound 28],35,–
[2H]C([2H])([2H])c1noc(C[C@H]2COc3cc(F)ccc3N2Cc2cc3c(cc2F)OCC(=O)N3)n1 [Compound 29],22,–
Cn1nnc(C[C@H]2COc3cc(F)ccc3N2Cc2cc3c(cc2F)OCC(=O)N3)n1 [Compound 30],68,–
O=C1COc2ccc(CN3c4ccc(F)cc4OC[C@@H]3Cc3c[nH]nn3)c(F)c2N1 [Compound 32],50.8,–
Cn1nnc(C[C@H]2COc3cc(F)ccc3N2Cc2ccc3c(c2F)NC(=O)CO3)n1 [Compound 33],11,–
[2H]C([2H])([2H])n1nnc(C[C@H]2COc3cc(F)ccc3N2Cc2ccc3c(c2)NC(=O)CO3)n1 [Compound 34],130,–
Cc1noc(C[C@H]2COc3cc(F)ccc3N2Cc2ccc3c(c2C)NC(=O)CO3)n1 [Compound 36],13.7,bioavailability ([2]; PO (100 mg/kg)): 64.9%; clearance [2]: 82.6 mL/min/kg; Vd [2]: 6.96 L/kg; AUC(0-t) ([2]; PO (100 mg/kg)): 29.9 µM·h; Cmax ([2]; PO (100 mg/kg)): 5.62 µM
Cc1c(CN2c3ccc(F)cc3OC[C@@H]2Cc2nnn(C)n2)ccc2c1NC(=O)CO2 [Compound 37],43.9,bioavailability ([2]; PO (100 mg/kg)): 142%; clearance [2]: 47.9 mL/min/kg; Vd [2]: 4.75 L/kg; AUC(0-t) ([2]; PO (100 mg/kg)): 116 µM·h; Cmax ([2]; PO (100 mg/kg)): 18.9 µM
Cn1nnc(C[C@H]2COc3cc(F)ccc3N2Cc2ccc3c(c2Cl)NC(=O)CO3)n1 [Compound 38],22.6,–
CC(=O)S[C@@H]1CC2=CC(=O)CC[C@]2(C)[C@H]2CC[C@@]3(C)[C@@H](CC[C@@]34CCC(=O)O4)[C@H]12 [spironolactone],–,nuclear receptor selectivity [3]: poor
